According to patent US9486474B2, “Interstitial therapy for immediate symptom relief and chronic therapy in interstitial cystitis” (THE REGENTS OF THE UNIVERSITY OF CALIFORNIA, priority 2004, dated 2016):

Tests used:
IC patients [1] = conditions: intravesical DMSO therapy; cited from earlier work
IC patients [2] = assay: heparin versus PPS in the intravesical therapeutic solution (preliminary data); type: in vivo, human
Excerpt: Data from preliminary studies for one embodiment of an intravesical therapeutic solution can provide immediate temporary relief of the symptoms of urgency and pain in IC patients [Dell and Parsons, Abstract presented at NIDDK/Interstitial Cystitis Association Symposium, Research Insights into Interstitial Cystitis, Alexandria, Va., (Oct. 30-Nov. 1, 2003); Davis, et al. Abstract presented at NIDDK/Interstitial Cystitis Association Symposium, Research Insights into Interstitial Cystitis, Alexandria, Va. (Oct. 30-Nov. 1, 2003); Parsons, Contemp Urol 15: 22-24, 27-28, 31-32, 35 (2003)]. One of the methods of the present invention combines heparin and lidocaine buffered with sodium bicarbonate to pH >8.0 via direct catheter delivery to the bladder, providing immediate and long term pain relief for chronic IC sufferers. In some embodiments, the solution contains 10,000-40,000 units of heparin. In some embodiments, heparin is replaced by 100-200 mg PPS (the contents of an oral capsule dissolved in 10 mL buffered normal saline), 10 mL 1% lidocaine or 16 mL 2% lidocaine, and 3 mL 8.4% sodium bicarbonate (w/v). The solution is instilled into the empty bladder and retained for approximately 30 minutes. The principal difference between this therapeutic solution and other such solutions is the presence of sodium bicarbonate, which dramatically increases the absorption of the lidocaine. […]

IC = conditions: oral PPS, after 8 to 12 months of therapy; cited from earlier work

Row | Molecule | IC patients treated who benefit (IC patients [1]) | efficacy in the therapeutic solution, heparin compared with PPS (IC patients [2]) | response rate (IC)
1 | C[S+](C)[O-] [DMSO, dimethylsulfoxide] | approximately 50% |  | 
2 | heparin |  | equal efficacy | 
3 | pentosan polysulfate sodium [PPS] |  | equal efficacy | approximately 70%
